Experimental data from patent publication US5387600A, “Treating arteriosclerosis using benzimidazole compositions” (priority 1992, dated 1995).

system: rabbit fed high-cholesterol feed; assay: Blood lipid lowering effect in rabbit fed high-cholesterol feed; type: in vivo; settings: New Zealand White female rabbits, 100 mg/kg/day in feed for 7 successive days
Excerpt: (2) Blood lipid lowering effect in rabbit fed high-cholesterol feed (i) New Zealand White female rabbits having body weight of about 2 kg were fed feed having high cholesterol content (100 g/day/rabbit: ORC-4 manufactured by Oriental Yeast, containing 0.5% of cholesterol and 0.5% of olive oil) for 7 days to produce hypercholesterolemia.
(§1) Subsequently, one group consisting of 3 rabbits (treatment group) was fed the same feed in the same amount, except that the feed further contained test compound (8) in the amount of 100 mg/kg/day/rabbit, for 7 successive days. On the other hand, as a control, another group consisting of 3 rabbits was fed the same feed in the same amount without any test compound.
(§2) A small amount of blood was drawn from the parotic vein of every rabbit once a week and was measured for amount of blood total cholesterol using IATROLIPO TC manufactured by Iatron Laboratories Inc.
Thus, it is clear that test compound (8) has an excellent lowering effect of the blood cholesterol. (ii) New Zealand White female rabbits having body weight of about 2 kg were fed feed having high cholesterol content (100 g/day/rabbit: ORC-4 manufactured by Oriental Yeast, containing 0.5% of cholesterol and 0.5% of olive oil) for 7 days to produce hypercholesterolemia. […]

Compound | fall of amount of blood total cholesterol in comparison with the control group [%]
CCCCCCCCCCCC(=O)Nc1ccc2nc(S)[nH]c2c1 [(8), 5-dodecanoylamino-2-mercaptobenzimidazole] | 25
Cc1cc(C)c(O)c(C(c2cc(C)cc(C)c2O)C(C)C)c1 [(53), 2,2'-isobutylidenebis(4,6-dimethyphenol)] | 40

system: rabbit fed feed having high cholesterol content; assay: Arteriosclerosis focus formation-regressing effect in rabbit fed feed having high cholesterol content; type: in vivo; settings: 100 mg/kg/day in feed for 20 successive days, after 20 weeks
Excerpt: (4) Arteriosclerosis focus formation-regressing effect in rabbit fed feed having high cholesterol content
New Zealand White female rabbits having body weight of about 2 kg were fed feed having high cholesterol content (100 g/day/rabbit: ORC-4 manufactured by Oriental Yeast, containing 0.5% of cholesterol and 0.5% of olive oil) for 7 days to produce hypercholesterolemia.
as §1, with “(53)” for “(8)”, “20” for “7”
After 20 weeks from the administration of the test compound, the aortas and arch part thereof were removed from each rabbit and the blood vessels were opened. Comparing the treatment group with the control group, it was observed that the arteriosclerosis focus formation was suppressed effectively in the treatment group.

Compound | cholesterol deposition to the eye ball | fatty liver formation
Cc1cc(C)c(O)c(C(c2cc(C)cc(C)c2O)C(C)C)c1 [(53), 2,2'-isobutylidenebis(4,6-dimethyphenol)] | suppressing | suppressing

same assay, conditions: 100 mg/kg/day in feed for 20 successive days, aortas examined after 20 weeks

Compound | arteriosclerosis focus formation
Cc1cc(C)c(O)c(C(c2cc(C)cc(C)c2O)C(C)C)c1 [(53), 2,2'-isobutylidenebis(4,6-dimethyphenol)] | suppresses

system: not listed separately; assay: Acute toxicity test; settings: mouse, in vivo; oral, suspension in 0.5% Tween 80, 8-week old ddy mice
Excerpt: Compounds (8) and (53) each was suspended in 0.5% Tween 80 solution. Six 8-week old ddy mice were orally administered the suspensions respectively and were observed on acute toxicity.

Compound | LD50 [mg/kg]
CCCCCCCCCCCC(=O)Nc1ccc2nc(S)[nH]c2c1 [(8), 5-dodecanoylamino-2-mercaptobenzimidazole] | ≥ 1000
Cc1cc(C)c(O)c(C(c2cc(C)cc(C)c2O)C(C)C)c1 [(53), 2,2'-isobutylidenebis(4,6-dimethyphenol)] | ≥ 1000

system: mouse abdominal cavity macrophage; assay: In vitro test for suppressing effect of macrophage-foaming reaction; type: cell-based; settings: 5 μM; cholesteryl ester from 3H-oleic acid, compared with control; 960 min
Method: (1) In vitro test for suppressing effect of macrophage-foaming reaction using mouse abdominal cavity macrophage
A 15-week old ICR female mouse (Japan SLC) was amputated at its neck and exsanguinated. Then, Hanks buffer (Nissui Pharmaceutical Co., Ltd.) was injected intraperitoneally. After massaging the abdominal part, the buffer was recovered rapidly and centrifuged at 1,000 rpm for 5 minutes to collect the abdominal cavity macrophage. Then, the collected abdominal cavity macrophage was suspended in GIT medium (Wako Pure Chemical Industry) and inoculated on a 24-well microplate. After culturing the macrophage for 2 hours at 37° C. in 5% CO2, the medium was changed into Dulbecco modified Eagle's MEM medium (Nissui Pharmaceutical Co., Ltd.). After further culturing the macrophage for 16 hours at 37° C. in 5% CO2, the following substances were added in order:
1 Test compounds: solutions in DMSO (Wako Pure Chemical Industry) 1 ml of the solutions were prepared, optionally diluted and the diluted solutions were added to individual wells (500 μl) in the amount of 5μl.
PC: phosphatidylcholine (Funakoshi)
PS: phosphatidylserine (Funakoshi)
DCP: dicetylphosphate (Funakoshi)
CHOL.: cholesterol (Sigma)
3 ^3 H-Oleic acid (Amersham Japan)
Then, after still further culturing the macrophage for 16 hours at 37° C. in 5% CO2, the lipid fraction was extracted with chloroform and methanol. The extracted lipid fraction was subjected to TLC (hexane:ether:acetic acid=70:30:1), the separated bands of CE (cholesterylester) and TG (triglyceride) were borne off from the TLC plate and then the radioactivities thereof were measured using a liquid scintillation counter (PACKARD BH-22). Yields of cholesteryl ester were calculated by comparing with a control.

Compound | Yield of CE (%)
CN1C(=O)C(Cl)C(Sc2nc3ccccc3[nH]2)N(C)C1=O (stereo not drawn) [(42)] | 61

same assay, conditions: 5 μM; triglyceride from 3H-oleic acid, compared with control; 960 min

Compound | Yield of TG (%)
CN1C(=O)C(Cl)C(Sc2nc3ccccc3[nH]2)N(C)C1=O (stereo not drawn) [(42)] | 96

same assay, conditions: Mus musculus, Macrophage, 16 h, cholesteryl ester from 3H-oleic acid, compared with control, read-out: Yield of CE (%)

Compound | activity at 5 µM [%]
Cc1nc2ccc([N+](=O)[O-])cc2[nH]1 [(5), 2-metyl-5-nitrobenzimidazole] | 67
O=[N+]([O-])c1ccc2nc(CCCCCCCCc3nc4ccc([N+](=O)[O-])cc4[nH]3)[nH]c2c1 [(6), 1,8-bis(5-nitrobenzimidazol-2-yl) octane] | 8
c1ccc(CSc2nc3ccccc3[nH]2)cc1 [(7), 2-benzylthiobenzimidazole] | 61
CCCCCCCCCCCC(=O)Nc1ccc2nc(S)[nH]c2c1 [(8), 5-dodecanoylamino-2-mercaptobenzimidazole] | 42
CCCCCCCCCC(=O)Nc1ccc2[nH]c(S)nc2c1 [(10)] | 69
CCCCCCCCCCCCNS(=O)(=O)c1ccc2[nH]c(S)nc2c1 [(12)] | 52
CCCCCCCCCCCCCCCCSc1nc2ccccc2[nH]1 [(20)] | 49
CCCCCCCCS(=O)(=O)Nc1ccc2[nH]c(S)nc2c1 [(21)] | 64
CC(CC(=O)Nc1ccc2[nH]c(S)nc2c1)CC(C)(C)C (stereo not drawn) [(23)] | 56
CCCCCCCCOc1ccc2[nH]c(S)nc2c1 [(27)] | 51
CCCCCCCCCCCC(=O)Nc1ccc2[nH]c(SC)nc2c1 [(28)] | 53
CCCCCCCCCCCCNC(=O)c1ccc2[nH]c(S)nc2c1 [(30)] | 51
CCCCCCCCCCCCOC(=O)c1ccc2[nH]c(S)nc2c1 [(34)] | 50
O=C(CSc1nc2ccccc2[nH]1)c1ccccc1O [(43)] | 45
CCCCCCCCCCCC(=O)Nc1ccc2[nH]cnc2c1 [(47)] | 55
Cc1cc(Cc2cc(C)cc(C(C)(C)C)c2O)c(O)c(C(C)(C)C)c1 [(52)] | 38
Cc1cc(C)c(O)c(C(c2cc(C)cc(C)c2O)C(C)C)c1 [(53), 2,2'-isobutylidenebis(4,6-dimethyphenol)] | 56
Cc1cc(C)c(O)c(C(CC(C)CC(C)(C)C)c2cc(C)cc(C)c2O)c1 (stereo not drawn) [(54)] | 25
CCCC(c1cc(C(C)(C)C)cc(C(C)(C)C)c1O)c1cc(C(C)(C)C)cc(C(C)(C)C)c1O [(56)] | 51
CC(=O)Oc1c(Cc2cc(C)cc(C(C)(C)C)c2O)cc(C)cc1C(C)(C)C [(58)] | 45
Cc1cc(C(c2ccccc2)c2cc(C)cc(C(C)(C)C)c2O)c(O)c(C(C)(C)C)c1 [(60)] | 48
CCCCCCCC(c1cc(C)cc(C2(C)CCCCC2)c1O)c1cc(C)cc(C2(C)CCCCC2)c1O [(61)] | 52
Cc1cc(C)c(O)c(C(C)(C)c2cc(C)cc(C)c2O)c1 [(62)] | 61
CCC(C)(C)c1cc(C(C)c2cc(C(C)(C)CC)cc(C(C)(C)CC)c2O)c(O)c(C(C)(C)CC)c1 [(63), 2,2'-ethylidenebis(4,6-di-tert-pentylphenol)] | 42
CCC(C)c1cc(C(C)CC)c(O)c(C(c2cc(C(C)CC)cc(C(C)CC)c2O)C(C)C)c1 (stereo not drawn) [(65)] | 38
Cc1cc(C)c(O)c(Cc2cc(C(C)(C)C)cc(C(C)(C)C)c2O)c1 [(66)] | 54
COC(=O)CCCC(C)(C)c1cc(C)cc(Cc2cc(C)cc(C(C)(C)CCCC(=O)OC)c2O)c1O [(67)] | 42
CCOC(=O)Oc1c(C)cc(C)cc1C(c1cc(C)cc(C)c1O)C(C)C (stereo not drawn) [(73)] | 48
Cc1cc(C(CCc2ccccc2)c2cc(C)cc(C(C)(C)C)c2O)c(O)c(C(C)(C)C)c1 [(74)] | 65

same assay, conditions: Mus musculus, Macrophage, 16 h, triglyceride from 3H-oleic acid, compared with control, read-out: Yield of TG (%)

Compound | activity at 5 µM [%]
Cc1nc2ccc([N+](=O)[O-])cc2[nH]1 [(5), 2-metyl-5-nitrobenzimidazole] | 89
O=[N+]([O-])c1ccc2nc(CCCCCCCCc3nc4ccc([N+](=O)[O-])cc4[nH]3)[nH]c2c1 [(6), 1,8-bis(5-nitrobenzimidazol-2-yl) octane] | 61
c1ccc(CSc2nc3ccccc3[nH]2)cc1 [(7), 2-benzylthiobenzimidazole] | 91
CCCCCCCCCCCC(=O)Nc1ccc2nc(S)[nH]c2c1 [(8), 5-dodecanoylamino-2-mercaptobenzimidazole] | 106
CCCCCCCCCC(=O)Nc1ccc2[nH]c(S)nc2c1 [(10)] | 129
CCCCCCCCCCCCNS(=O)(=O)c1ccc2[nH]c(S)nc2c1 [(12)] | 102
CCCCCCCCCCCCCCCCSc1nc2ccccc2[nH]1 [(20)] | 62
CCCCCCCCS(=O)(=O)Nc1ccc2[nH]c(S)nc2c1 [(21)] | 93
CC(CC(=O)Nc1ccc2[nH]c(S)nc2c1)CC(C)(C)C (stereo not drawn) [(23)] | 119
CCCCCCCCOc1ccc2[nH]c(S)nc2c1 [(27)] | 78
CCCCCCCCCCCC(=O)Nc1ccc2[nH]c(SC)nc2c1 [(28)] | 164
CCCCCCCCCCCCNC(=O)c1ccc2[nH]c(S)nc2c1 [(30)] | 91
CCCCCCCCCCCCOC(=O)c1ccc2[nH]c(S)nc2c1 [(34)] | 108
O=C(CSc1nc2ccccc2[nH]1)c1ccccc1O [(43)] | 98
CCCCCCCCCCCC(=O)Nc1ccc2[nH]cnc2c1 [(47)] | 98
Cc1cc(Cc2cc(C)cc(C(C)(C)C)c2O)c(O)c(C(C)(C)C)c1 [(52)] | 101
Cc1cc(C)c(O)c(C(c2cc(C)cc(C)c2O)C(C)C)c1 [(53), 2,2'-isobutylidenebis(4,6-dimethyphenol)] | 92
Cc1cc(C)c(O)c(C(CC(C)CC(C)(C)C)c2cc(C)cc(C)c2O)c1 (stereo not drawn) [(54)] | 95
CCCC(c1cc(C(C)(C)C)cc(C(C)(C)C)c1O)c1cc(C(C)(C)C)cc(C(C)(C)C)c1O [(56)] | 102
CC(=O)Oc1c(Cc2cc(C)cc(C(C)(C)C)c2O)cc(C)cc1C(C)(C)C [(58)] | 98
Cc1cc(C(c2ccccc2)c2cc(C)cc(C(C)(C)C)c2O)c(O)c(C(C)(C)C)c1 [(60)] | 96
CCCCCCCC(c1cc(C)cc(C2(C)CCCCC2)c1O)c1cc(C)cc(C2(C)CCCCC2)c1O [(61)] | 103
Cc1cc(C)c(O)c(C(C)(C)c2cc(C)cc(C)c2O)c1 [(62)] | 98
CCC(C)(C)c1cc(C(C)c2cc(C(C)(C)CC)cc(C(C)(C)CC)c2O)c(O)c(C(C)(C)CC)c1 [(63), 2,2'-ethylidenebis(4,6-di-tert-pentylphenol)] | 96
CCC(C)c1cc(C(C)CC)c(O)c(C(c2cc(C(C)CC)cc(C(C)CC)c2O)C(C)C)c1 (stereo not drawn) [(65)] | 101
Cc1cc(C)c(O)c(Cc2cc(C(C)(C)C)cc(C(C)(C)C)c2O)c1 [(66)] | 108
COC(=O)CCCC(C)(C)c1cc(C)cc(Cc2cc(C)cc(C(C)(C)CCCC(=O)OC)c2O)c1O [(67)] | 92
CCOC(=O)Oc1c(C)cc(C)cc1C(c1cc(C)cc(C)c1O)C(C)C (stereo not drawn) [(73)] | 90
Cc1cc(C(CCc2ccccc2)c2cc(C)cc(C(C)(C)C)c2O)c(O)c(C(C)(C)C)c1 [(74)] | 108

system: rabbit fed normal feed; assay: Blood lipid lowering effect in rabbit fed normal feed; type: in vivo; settings: New Zealand White female rabbits, 100 mg/kg/day in feed for 7 successive days
Method: (3) Blood lipid lowering effect in rabbit fed normal feed (i) New Zealand White female rabbits having body weight of about 2 kg were fed normal feed (100 g/day/rabbit: ORC-4 manufactured by Oriental Yeast) for 7 days.
as §1, with “fed the normal feed in” for “fed the same feed in”, “successive days. As a control,” for “successive days. On the other hand, as a control,”
A Small amount of blood was drawn from the parotic vein of every rabbit once a week and was measured for amount of blood total cholesterol using IATROLIPO TC manufactured by Iatron Laboratories Inc.
Thus, it is clear that test compound (8) has an excellent blood cholesterol lowering effect not only on rabbits fed high-cholesterol feed but also on rabbits fed normal feed. (ii) New Zealand White female rabbits having body weight of about 2 kg were fed normal feed (100 g/day/rabbit: ORC-4 manufactured by Oriental Yeast) for 7 days. […]
as §2

Compound | fall of amount of blood total cholesterol in comparison with the control group [%]
CCCCCCCCCCCC(=O)Nc1ccc2nc(S)[nH]c2c1 [(8), 5-dodecanoylamino-2-mercaptobenzimidazole] | 20
Cc1cc(C)c(O)c(C(c2cc(C)cc(C)c2O)C(C)C)c1 [(53), 2,2'-isobutylidenebis(4,6-dimethyphenol)] | 20
